Assay: Human HepG2 cell viability assay in 384 well format
Assay type: toxicity, cell-based
Design: dose 125 nL, time 70.5 hour; concentration not given beside the values
Conditions: HepG2 cells, read-out: Inhibition

| Compound | cytotoxicity at 70.5 h [%] |
| --- | --- |
| COCCn1cc(NC(=O)NCC2CCN(c3ccccc3)C2)cn1 (stereo not drawn) | -3.34 |
| Cc1nn(CCC#N)c(C)c1CCC(=O)N(C)Cc1ccsc1 | -8.77 |
| Cc1n[nH]c(C(=O)N2CCCC(C)CC2)c1Br (stereo not drawn) | -5.15 |
| CCC1CN(C(=O)c2[nH]nc(C)c2Br)CCO1 (stereo not drawn) | -6.3 |
| Cc1ccccc1S(=O)(=O)NC(=O)C1(c2cccc(Cl)c2)CC1 | -5.62 |
| CCOc1ncccc1C(=O)N1CC=C(c2ccc(O)cc2)CC1 | -6.39 |
| CN(C)c1ccc(CCCNC(=O)NCC(O)c2ccsc2)cc1 (stereo not drawn) | -3.63 |
| CCc1nc(C2CCCN2c2ncc(Br)cn2)no1 (stereo not drawn) | -6.32 |
| COCCCn1ccc(NC(=O)NCCc2cccnc2)n1 | -6.28 |
| CCn1nc(C)c(S(=O)(=O)Nc2cccc(C(=O)O)c2C)c1C | -2.69 |
| Cc1noc(-c2ccnc(N3CCC(CN4CCOCC4)CC3)c2)n1 | 11 |
| CS(=O)(=O)Cc1ccc(NC(=O)Cc2cccnc2)cc1F | -4.71 |
| CN(C)C(=O)c1ccc(OC2CCCC2)cc1 | -7 |
| Cc1cccc(C(C)NCC2CCS(=O)(=O)CC2)c1 (stereo not drawn) | -3.65 |
| CC(C)COC(C)C(=O)N1CCCCCC1 (stereo not drawn) | -8.79 |
| CC(C)COC(C)C(=O)N1CCCCC1 (stereo not drawn) | -3.46 |
| c1cnn(CC2CN(CCCOc3ccc4c(c3)OCO4)CCO2)c1 (stereo not drawn) | -8.43 |
| COCCCn1ccc(NC(=O)NCCCNc2ccccc2)n1 | -3.49 |
| CC(=O)Nc1cccc(C(C)NCC2CCS(=O)(=O)CC2)c1 (stereo not drawn) | -3.86 |
| CC(NCC1CCS(=O)(=O)CC1)c1cccc(OC(F)F)c1 (stereo not drawn) | -6.96 |
| CCN(CC)CCNC(=O)c1ccc(Cl)c(NS(C)(=O)=O)c1 | 4.61 |
| CCOc1ncccc1CNS(=O)(=O)N1CCOCC1 | 15.2 |
| O=S(=O)(NCC1CCOC1)N1CCc2ccccc2C1 (stereo not drawn) | -0.92 |
| O=C(NCCNc1cnccn1)c1scnc1Cl | -8.29 |

| Compound | cytotoxicity at 70.5 h [%] |
| --- | --- |
| CS(=O)(=O)c1ccc(NC(=O)CSC(F)(F)F)cn1 | 20.8 |
| Cc1noc(C)c1CNC(=O)C(C)Oc1ccccc1F (stereo not drawn) | -4.89 |
| CNC(=O)NC(=O)CN1CCCN(CC(F)(F)F)CC1 | -7.82 |
| Cc1noc(OCc2ccc(C#N)cc2)n1 | -0.0296 |
| CC1(C)CN(C(=O)Nc2ccc(Cn3cccn3)cc2)CCO1 | -3.49 |
| Cc1noc(OCCOc2ccc(C#N)cc2)n1 | 5.31 |
| O=C(C[S+]([O-])Cc1cccc(C(F)(F)F)c1)NC1CCCC1 (stereo not drawn) | -8.39 |
| O=C(C[S+]([O-])Cc1ccc(F)cc1Cl)NC1CCCC1 (stereo not drawn) | -6.82 |
| COc1ccc(-c2ccc(C(=O)O)c(F)c2)c(F)c1 | 27.5 |
| NS(=O)(=O)NCC1(c2ccccc2Br)CC1 | 0.0399 |
| CCN(C)S(=O)(=O)NCC1(c2ccccc2Br)CC1 | 4.86 |
| CCc1cc(N2CCC(NC(=O)CCC3CCCO3)CC2)ncn1 (stereo not drawn) | 25.3 |
| Cc1cc(N2CCC(NC(=O)CCc3ccco3)CC2)nc(C)n1 | 11.4 |
| Cn1c(=O)oc2cc(Nc3nccnc3C#N)ccc21 | -2.2 |
| CN(C)CCNC(=O)Nc1cccc(C[S+]([O-])Cc2ccccc2)c1 (stereo not drawn) | -2.04 |
| CC1(C)CN(CC(F)(F)F)CCN1CC(=O)NC1CC1 | -6.02 |
| CC(NC(=O)c1cccs1)C(=O)NS(=O)(=O)c1ccc(C#N)cc1 (stereo not drawn) | -5.58 |
| COc1c(CNCc2cccnc2OC2CCCC2)c(C)nn1C | -1.47 |
| COc1ccc(Cl)cc1-c1cc(NC(=O)CNC(=O)C2CC2)[nH]n1 | -7.16 |
| CCN(C(=O)CN(Cc1cccc(O)c1)C1CCC(O)CC1)C1CC1 (stereo not drawn) | -2.83 |
| N#Cc1ccsc1C(=O)N1CCCCC1Cn1cccn1 (stereo not drawn) | 9.01 |
| CN1CCN(CCCN(C)S(=O)(=O)C2CCCCC2)CC1 | -1.58 |
| CCc1ccc(C(COC)NC(=O)c2ccc(O)nc2)o1 (stereo not drawn) | -6.34 |
| COC(=O)NCc1ccc(NC(=O)CC2=CCCCC2)cc1 | 0.0251 |

| Compound | cytotoxicity at 70.5 h [%] |
| --- | --- |
| COCC(NC(=O)c1ccoc1)c1ccc(C)o1 (stereo not drawn) | -2.43 |
| CCC(C)(NCc1ncc(C(C)C)o1)c1nccs1 (stereo not drawn) | 1.37 |
| CCC1CN(C(=O)COc2ccc(C)nc2)CCO1 (stereo not drawn) | 0.326 |
| CC(Cn1cccn1)NC(=O)NCCCN1CCc2ccccc21 (stereo not drawn) | -0.512 |
| CC(=O)NCCCNCc1cc(F)ccc1Br | 15 |
| CCOC(=O)NC1CCCN(Cc2ccc(-n3cncn3)c(C)c2)C1 (stereo not drawn) | -0.7 |
| CN(C)C(=O)COc1ccccc1CN1CCOC2(CCCC2)C1 | 0.31 |
| CN1CCN(c2ccc(NC(=O)c3ccccn3)c(C(F)(F)F)c2)CC1 | -5.99 |
| CCN1CCN(CC(O)c2cc(Cl)ccc2Cl)CC1 (stereo not drawn) | -8.52 |
| Cc1ccc(-c2nn3c(nc2=O)-c2ccccc2NC3C(=O)O)cc1C (stereo not drawn) | 3.4 |
| OCCN1CCN(CC(O)c2cc(Cl)ccc2Cl)CC1 (stereo not drawn) | -3.64 |
| COc1ccccc1C(C)Nc1ncc(C(N)=O)cc1Cl (stereo not drawn) | -9.04 |
| COc1ccc(C(C)Nc2ncc(C(N)=O)cc2Cl)cc1OC (stereo not drawn) | -10.8 |
| O=C(CSc1nnc[nH]1)NCc1sccc1Br | -5.23 |
| Cc1ccccc1C(NC(=O)CNC(=O)c1ccoc1C)C(C)C (stereo not drawn) | 11.7 |
| Cc1cc(N2CCCC(OC(=O)CCc3cnn(C)c3)C2)nc(C)n1 (stereo not drawn) | -11.2 |
| Cc1cc(CS(=O)(=O)NC2CCCc3ccccc32)on1 (stereo not drawn) | -1.17 |
| CN(C)CCN(C)C(=O)Nc1cc(F)cc(N2CCCC2)c1 | -6.32 |
| CC(C#N)NS(=O)(=O)c1ccc2c(c1)N(C)CCC2 (stereo not drawn) | -0.913 |
| CC(=O)NS(=O)(=O)c1ccc2c(c1)N(C)CCC2 | -5.49 |
| Cc1cccc(NS(=O)(=O)c2ccc(C#N)nc2)c1C#N | -4.92 |
| CCOCC(=O)N(C)c1ccc(F)c(Cl)c1 | -2.55 |
| CN1CCCc2ccc(S(=O)(=O)NC(=O)C3CC=CC3)cc21 | -3.77 |
| Cc1noc(C)c1CN(C)C(C)c1cccs1 (stereo not drawn) | -3.21 |

| Compound | cytotoxicity at 70.5 h [%] |
| --- | --- |
| Cc1ccc(NC(=O)N2CCCC(O)C2)c(Br)c1 (stereo not drawn) | 6.64 |
| CC(C)(C)NC(=O)C1CSCN1C(=O)CCc1ccco1 (stereo not drawn) | -0.786 |
| CC(C)NC(=O)Nc1ccc(-c2nc(C(C)C)no2)cc1 | -8.44 |
| CC(C)N(C(=O)CCc1cccc(F)c1)C1CCOCC1 | -4.3 |
| CC(C)c1noc(-c2ccc(NC(=O)NCC(O)C(C)C)cc2)n1 (stereo not drawn) | -7.09 |
| CC(=O)N(C)Cc1cccc(NC(=O)N(C)Cc2nccs2)c1 | -4.8 |
| CCc1cnc(NC(=O)NC2CCN(C3CCCC3)CC2)s1 | -7.06 |
| O=C(c1c[nH]c2ccccc2c1=O)N1CCSCC1 | -6.3 |
| O=C(c1c(F)cc(Br)cc1F)N1CCc2cnccc21 | -5.62 |
| O=C(c1c(O)cc(F)cc1F)N1CCc2cnccc21 | 0.9 |
| CC(C)CSCCCNC(=O)C1CCOC1 (stereo not drawn) | -5.76 |
| Cc1cc(CNCCNS(C)(=O)=O)sc1Br | 4.81 |
| CC(NCc1cccs1)c1ccc(OCc2nccn2C)cc1 (stereo not drawn) | -4.31 |
| CC(=O)N(C)Cc1cccc(NC(=O)N(C)CCc2cccs2)c1 | 11.4 |
| Cc1cccc(CC(=O)Nc2cccnc2N2CCC(CO)CC2)c1 | -2.43 |
| Cc1[nH]ncc1CCCNC(=O)N1CCOC(C)C1 (stereo not drawn) | -5.97 |
| COCCC1(CNC(=O)NCC2CN(C)CCN2C)CCC1 (stereo not drawn) | -2.66 |
| Cc1cc(CN2CCN(C(=O)NCCCc3cn[nH]c3C)CC2)on1 | -4.02 |
| CSCCC(NC(N)=O)C(=O)NCc1c(C)nn(-c2ccccc2)c1C (stereo not drawn) | -4.27 |
| CCNC(=O)NC(=O)CN1CCOC(c2cccc(Br)c2)C1 (stereo not drawn) | -8.56 |
| Cc1cccc(C(C)(C)CNC(=O)CN(C)S(=O)(=O)c2cccnc2)c1 | -15.3 |
| CN(CCc1nc2ccccc2c(=O)[nH]1)CCC(F)(F)F | -6.6 |
| CC(=O)N1CCC(NC(=O)NCCCc2cn[nH]c2C)CC1 | 0.436 |
| NS(=O)(=O)c1cnc(NCC2(c3cccc(F)c3)CCOCC2)s1 | -0.912 |

| Compound | cytotoxicity at 70.5 h [%] |
| --- | --- |
| NS(=O)(=O)c1cnc(NCC2(c3ccccc3)CCC2)s1 | -2.17 |
| CCN1CCNC(=O)C12CCN(C(=O)Cc1ccccn1)CC2 | -1.44 |
| COc1cc(N2CCC3(CC2)CN(CCO)c2ccccc23)ncn1 | -0.577 |
| O=c1ccc2c([nH]1)CCC(NS(=O)(=O)C1CC1)C2 (stereo not drawn) | -4.74 |
| COCCn1c2c(ccc1=O)CCN(C(=O)C1CC=CC1)CC2 | -2.63 |
| CN(C)Cc1nc(-n2cnc(C(=O)NCC3CC3)c2)n2ccccc12 | -3.22 |
| COCCn1c2c(ccc1=O)CCN(C(=O)NC1CC1)CC2 | -3.9 |
| Cc1ccc2c(n1)N(Cc1cccnc1)CCN(Cc1cnn(C)c1)C2 | -2.59 |
| COCC(=O)N1CCc2ccc(=O)n(CC3CC3)c2CC1 | -2.86 |
| COc1c(CNC2(c3noc(C)n3)CCC2)c(C(C)C)nn1C | -0.972 |
| Cc1sc(CN)nc1-c1ccc(Cl)cc1 | 4.14 |
| O=C([C@H]1CCCN1)N1CC2(CCNCC2)c2cc(Cl)ccc21 | 30 |
| O=C([C@@H]1CSCN1)N1CC2(CCNCC2)c2cc(Cl)ccc21 | -3.25 |
| CCOC1COC2(CCN(C(=O)c3cccc(C)n3)CC2)C1 (stereo not drawn) | -0.53 |
| CNC(=O)[C@H]1C[C@@H]2CN(Cc3csc(C)n3)C[C@@H]2N1S(C)(=O)=O | 27.8 |
| CN(C)CC(=O)N1CCC2(CC1)Cc1ccccc1CN(C)C2=O | 23.3 |
| CC(=O)N1CCC2(CC1)CN(C(=O)[C@@H]1CSCN1)c1ccc(Cl)cc12 | 1.24 |
| Cc1nc(CN2CCO[C@@H]3CC(COc4ccccn4)C[C@H]32)cs1 (stereo partly drawn) | -1.88 |
| Cc1cc(C(=O)N2CC[C@H]3[C@H](C[C@@H](CN4CCCC4)N3C)C2)c(C)o1 | 1.81 |
| c1cnc(N2CCN3C[C@H](Oc4cncnc4)C[C@H]3C2)nc1 | -1.15 |
| CN(C)C(=O)C1CCN(C2CCN(CC3CCC3)CC2)CC1 | -1.7 |
| O=C(O)c1c(-c2cncnc2)ncc2c1CCN(Cc1cccnc1)C2 | 2.19 |

Source: ChEMBL document CHEMBL3507680, “University of Dundee, Gates Library screen for HepG2 cell viability”
